In one series the test system is COX-2 protein expression. The series can be described thus: COX-2 protein expression in LPS-treated macrophages (Western blot). The class given is cell-based, C57BL/6J mice. As to conditions: 10 µM for compounds 1, 7, 9, 50 µM for others, LPS 24 h. The procedure:
Figure 4 Effects of the fluorinated benzofuran and dihydrobenzofuran on COX-2 and NOS2 protein expressions. COX-2 and NOS2 protein expressions were assessed in macrophages incubated with only 10 µM for compounds 1, 7, and 9, and 50 µM for the other compounds, for 30 min prior to the addition of 10 ng/mL LPS for 24 h. β-actin was used as a loading control, and densitometric analysis was performed using ImageJ software (NIH, MA). Data are expressed as fold of LPS-treated macrophages and represented as mean ± SEM of 4 different experiments; * p < 0.05 versus LPS (one-way ANOVA followed by Dunnett’s test).
Macrophages were incubated with the compounds for 30 min prior to the addition of 10 ng/mL LPS for 24 h. Protein levels for COX-2 and NOS2 were detected in LPS-stimulated macrophages. As previously described, 10 µg of total protein was assessed. The primary antibodies were developed and characterized as previously described: for COX-2, mouse monoclonal antibody anti-COX-2 (clone COX-214, 1/5000); for NOS2, rabbit polyclonal antibody anti-NOS2 (dilution1/2000 [33]). Antibodies anti-phospho-NF-κB (3033S), phospho-IκBα (9246S), and total IκBα (4814S) were from Cell Signaling Technologies (Danvers, MA, USA). Total NF-κB C-20 (sc-372) was from Santa Cruz Biotechnologies (Dallas, TX, USA), and mouse β-actin (dilution 1/10,000) (Sigma-Aldrich, A5441). Clarity™ western ECL substrate (Bio-Rad Laboratories 10-5061) was used according to the manufacturer’s instructions to reveal positive bands visualized using Bio-Rad ChemiDoc. For Bcl-2 and cleaved PARP-1, HCT116 cells were plated in 6-well plates (200,000 cells per well) for 24 h, and treated with compounds 1 and 2 at 10, 25, and 50 µM for 72 h. Supernatants and cells were collected and lysed using RIPA lysis buffer containing inhibitors of protease. Western blot of Bcl-2 and cleaved PARP-1 was performed using 25 µg of total protein with a rabbit polyclonal antibody anti-Bcl-2 (1/500) (Santa Cruz Biotechnology, sc-492), rabbit polyclonal antibody anti-PARP-1 (1/1000) (Santa Cruz Biotechnology, sc-7150), and mouse anti-β-actin (dilution 1/10,000) (Sigma-Aldrich, A5441).
Densitometric analyses were performed using ImageJ software (NIH, MA, USA). The ratio of the different analyzed bands to β-actin was determined and data are represented as fold change compared to the LPS-treated cells. Percentage of viable cells for proliferation assay was determined as percentage to control (non-treated cells). For TUNEL assay, apoptotic cells were quantified, and results were expressed as percentage to positive cells (cleaved DNA) compared to control (non-treated cells). Statistical analysis was performed using one-way ANOVA, followed by Dunnett’s multiple comparisons test using GraphPad Prism software. Differences were considered significant when p < 0.05.
Background: Immunoblotting shows a protein as a band on a membrane.

A further series has as its system IL-6 mRNA. Nature of the series: LPS-dependent IL-6 mRNA in THP-1-derived macrophages (RT-PCR). The class given is cell-based, human. Particulars: 50 µM, 10 ng/ml LPS 6 h. The procedure:
F i g u re S3: Eff ect of benzofuran compounds on the lev els of LP S -dependent mRNA of CCL2 and IL-6 in THP-1 –deriv ed macrophages. Human-monoc yti c cell l ine-THP-1 wer e treat ed with PMA (25 nM for 48 hours) th en in cub ated with 50 μM compounds for 30 minutes b efo re the addit ion of 10 ng/ml LP S fo r 6 hours. Gene ex pression of IL6 and CCL2 were measur ed by RT-PCR and the v alu es wer e nor mal ized to GAPDH. Results represent means ± SEM by one way ANOVA followed by Dunnett test.

The next series concerns PGE2. The series can be described thus: PGE2 release in LPS-treated macrophages (BMDM). The class given is cell-based, C57BL/6J mice. Particulars: 10 µM for compounds 1, 7, 9, 50 µM for others, 10 ng/mL LPS 24 h. The procedure:
C57BL/6J (10–15 weeks old) male mice were obtained from the animal care facility at the American University of Beirut. All animal procedures were performed following the recommendations of the IACUC (Institutional Animal Care and Use Committee approval 16-09-M379). BMDMs were prepared and characterized as described previously by our group. BMDMs were isolated from C57BL/6J mice by flushing the femur and tibia with RPMI-1640 culture media (Sigma-Aldrich R7388), and cells were collected and centrifuged at 300× g for 5 min. The supernatant was discarded, and the pellet was resuspended in 2 mL red blood lysis 10% (Sigma-Aldrich R7767) medium in PBS and incubated for 5 min at room temperature. After diluting the suspension of cells with 5 mL of RPMI containing 10% FBS and 1% penicillin–streptomycin, cells were centrifuged at 300× g for 5 min, and the cell pellet was resuspended in RPMI media containing 10% FBS supplemented with 15% L929-conditioned medium containing macrophage-colony stimulating factor (M-CSF1) and plated on […]. Cells were allowed to proliferate and differentiate for 5–6 days. Cells were harvested, washed, and allowed to adhere overnight in RPMI containing 10% FBS for treatment. Cells were previously characterized by flow cytometry as macrophages using this method. […] Cells were plated at 0.8 × 10^6 cells per 3.8 cm^2 well [27].
BMDMs were then treated with different concentrations of the benzofuran and dihydrobenzofuran derivatives for 30 min prior to the addition of 10 ng/mL LPS for 24 h. […] The supernatants were assessed for IL-6, PGE2, CCL2, and nitrite, the stable derivative of NO, as described previously.
(§1) IL-6, CCL2, nitrite (for NO), and PGE2 concentrations from 3–5 independent experiments were expressed as percentage of LPS alone and as mean ± SEM. COX activity was determined as percentage of PGE2 produced from exogenous arachidonic acid. Curve fitting and calculation of IC50 values were performed using GraphPad Prism (version 9.5.1 Software, La Jolla, CA, USA).

In the next series the target is T1, COX-1 (Homo sapiens, UniProt P23219).
T1 construct: expressed in transfected cells
T1 sequence (P23219 24-599): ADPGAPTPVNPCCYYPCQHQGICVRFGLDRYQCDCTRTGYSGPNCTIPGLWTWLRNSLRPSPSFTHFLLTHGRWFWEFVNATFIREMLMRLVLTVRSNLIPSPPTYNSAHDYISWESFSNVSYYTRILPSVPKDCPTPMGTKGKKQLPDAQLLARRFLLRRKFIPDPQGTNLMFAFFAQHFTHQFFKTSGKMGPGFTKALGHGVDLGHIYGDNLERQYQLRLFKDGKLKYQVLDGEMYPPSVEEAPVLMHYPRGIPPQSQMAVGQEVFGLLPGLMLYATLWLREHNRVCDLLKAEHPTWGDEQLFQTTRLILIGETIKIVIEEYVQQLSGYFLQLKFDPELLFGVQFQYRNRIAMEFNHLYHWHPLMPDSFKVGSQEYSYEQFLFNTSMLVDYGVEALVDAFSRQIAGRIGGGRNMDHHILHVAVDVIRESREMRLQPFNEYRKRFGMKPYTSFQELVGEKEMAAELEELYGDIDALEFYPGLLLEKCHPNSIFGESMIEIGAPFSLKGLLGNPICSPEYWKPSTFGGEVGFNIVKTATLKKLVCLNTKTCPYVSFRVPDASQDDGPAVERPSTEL
The series can be described thus: COX-1 activity: PGE2 from exogenous arachidonic acid in HEK-293 cells overexpressing COX-1. The class given is cell-based. Particulars: 10 µM for compounds 1, 7, 9, 50 µM for others; 10 µM arachidonic acid. As to the method:
Figure 3 Effects of the fluorinated benzofuran and dihydrobenzofuran on COX-1 and COX-2 activities. (A) Illustration for COX-1 activity assay. HEK-293 cells stably overexpressing COX-1 are treated with the nine derivatives of benzofuran at concentrations of only 10 µM for compounds 1, 7, and 9, and 50 µM for the other compounds, 30 min prior to the addition of 10 µM arachidonic acid (AA). […] (B) COX-1 activity. […] Levels of PGE2 were very low in the absence of arachidonic acid (0.04 ± 0.01 ng/mL) and 104.3 ± 16.7 ng/mL for 10 µM AA. (C) Illustration for COX-2 activity determination. Macrophages are treated with 10 µM of aspirin (ASA) for 30 min to block basal COX activity, washed, and treated with 10 ng/mL LPS for 24 h to induce COX-2. Cells are then washed and incubated 30 min with 50 µM of the different compounds prior to the addition of 10 µM of AA. The produced PGE2 mainly reflects COX-2 activity. (D) COX-2 activity. Percentage of LPS-treated cells was calculated, and data are represented as mean ± SEM (n = 4); * p < 0.05 versus AA for COX-1 activity, and versus LPS + ASA + AA for COX-2 activity (one-way ANOVA followed by Dunnett’s test). […] Levels of PGE2 were very low in the absence of arachidonic acid (0.06 ± 0.01 ng/mL) and 71.7 ± 5.7 ng/mL for 10 µM AA.
COX-1 and COX-2 activities were performed as described previously in human embryonic kidney cell line (HEK-293) stably overexpressing COX-1 [19] and in macrophages, respectively. […] For both COX-1 and COX-2 assays, the benzofuran compounds were then added to the cells for 30 min prior to the incubation with 10 µM arachidonic acid for another 30 min. PGE2 was then measured using an enzyme immunoassay, as described previously.
as §1

Series [1] is described as follows: Toxicity on macrophages (BMDM), WST-1 assay. Particulars: C57BL/6J, mouse, bone marrow-derived macrophages (BMDM), read-out: macrophage viability. The series is classed as cell-based, C57BL/6J mice. The procedure:
WST-1 assay (Sigma-Aldrich, 5015944001) was used to determine the toxicity of the synthesized compounds on BMDM and HCT116 (ATCC, CCL-247), kindly provided by Dr. Nadine Darwiche, Department of Biochemistry and Molecular Genetics, American University of Beirut, Lebanon. Briefly, macrophages (50,000 cells per well) and HCT116 (20,000 cells per well) were plated in a 96-well plate in RPMI 1640 culture medium containing 10% fetal bovine serum (FBS) and grown for 24 h. Cells (in triplicates) were treated with 10 or 50 μM of the compounds for macrophages, and 50 or 100 μM for HCT116. Culture medium without cells and cells without treatment were used as basal and maximal activity, respectively. Results were expressed as percentage of cells without treatment.
F i g u re S1: E ff e c t of fluorin at ed benzofuran derivatives on m acrophages
viabilit y. C ells in cub at ed with 10 and 50 μM of benzofuran d eri vativ es
(compounds 1 to 9) bel onging to groups І, II, III and IV for 24 hours. Cell
viabilit y w as det ermin ed by WST-1 assay. Non-t r eated m acrophages wer e used
as cont rol. Results were shown as mean ± SEM (n=3) . *p< 0.05 comp ar ed to the
vehicle –treated cells (basal), one-way ANOVA followed by Dunnett’s test.
(1 picture or pasted object on this page, not shown here)
On the technique in general: Tetrazolium dyes change colour on reduction, which living cells bring about.

Take `O=C(O)/C=C1/Oc2ccccc2C1(F)F` [Compound 4]: the “effect on LPS-induced COX-2 protein expression” value with COX-2 protein expression is “loss of this inhibitory effect”. Besides, the “effect on IL-6 mRNA levels” value in the series on IL-6 mRNA is on record as “to a lesser extent”.

The term viability denotes a per cent measure of how many cells are alive, often set against a control. On to `COC(=O)CC1(SCCO)Oc2ccc(Br)cc2C1(F)F` (stereo not drawn) [Compound 7], for which the “effect on PGE2 production in response to LPS” value in the series with PGE2 is listed as “loss of the inhibitory activity”. Further, the “effect on COX-1 activity” value on COX-1 is “loss of the inhibitory activity”. For the same compound, the viability at 24 h, 50 µM in series [1] was 50%.

With `COC(=O)C1CC(C)=C(C)CC12Oc1ccc(Br)cc1C2(F)F` (stereo not drawn) [Compound 9], in series [1], the viability at 24 h, 50 µM amounted to 50%.

The values are drawn from paper PMC10299677, “Fluorinated Benzofuran and Dihydrobenzofuran as Anti-Inflammatory and Potential Anticancer Agents” (International Journal of Molecular Sciences, 2023).
